Assay: mn = molality of the nth substance listed, in mol/kg
Conditions: 101 kPa, Liquid, Capillary tube (Ostwald / Ubbelohde) method

NCC(=O)O [2-aminoacetic acid] + O
viscosity [mPa·s]
Conditions | 293.15 K | 298.15 K | 303.15 K | 308.15 K | 313.15 K
m1 = 0.025 | 1.011 | 0.8923 | 0.7994 | 0.7201 | 0.6549
m1 = 0.05 | 1.016 | 0.8947 | 0.8017 | 0.7213 | 0.6563
m1 = 0.1 | 1.022 | 0.9011 | 0.8056 | 0.7236 | 0.6582

OC[C@H]1OC(OC[C@H]2OC(O[C@]3(CO)O[C@H](CO)[C@@H](O)[C@@H]3O)[C@H](O)[C@@H](O)[C@@H]2O)[C@H](O)[C@@H](O)[C@H]1O (stereo partly drawn) [D-(+)-raffinose] + O
viscosity [mPa·s]
Conditions | m1 = 0.05 | m1 = 0.055 | m1 = 0.06 | m1 = 0.065 | m1 = 0.07 | m1 = 0.075 | m1 = 0.08 | m1 = 0.085 | m1 = 0.09 | m1 = 0.1
293.15 K | 1.056 | 1.061 | 1.066 | 1.071 | 1.079 | 1.087 | 1.095 | 1.101 | 1.108 | 1.118
298.15 K | 0.9281 | 0.9343 | 0.94 | 0.9448 | 0.9488 | 0.9553 | 0.9597 | 0.9674 | 0.9724 | 0.9824
303.15 K | 0.8259 | 0.8302 | 0.8349 | 0.8402 | 0.8435 | 0.8485 | 0.8521 | 0.8569 | 0.8631 | 0.8719
308.15 K | 0.7393 | 0.7424 | 0.7474 | 0.7516 | 0.7547 | 0.7585 | 0.7625 | 0.7663 | 0.77 | 0.7775
313.15 K | 0.6657 | 0.6688 | 0.673 | 0.6764 | 0.6792 | 0.6822 | 0.6857 | 0.6881 | 0.6925 | 0.698

O=C[C@H](O)[C@H](O)[C@H](O)CO [D-ribose] + O
viscosity [mPa·s]
Conditions | m1 = 0.05 | m1 = 0.055 | m1 = 0.06 | m1 = 0.065 | m1 = 0.07 | m1 = 0.075 | m1 = 0.08 | m1 = 0.085 | m1 = 0.09 | m1 = 0.1
293.15 K | 1.019 | 1.021 | 1.022 | 1.024 | 1.026 | 1.027 | 1.029 | 1.031 | 1.033 | 1.035
298.15 K | 0.9032 | 0.9047 | 0.906 | 0.9073 | 0.9085 | 0.91 | 0.9114 | 0.9127 | 0.9143 | 0.9168
303.15 K | 0.8071 | 0.8082 | 0.8092 | 0.8101 | 0.8113 | 0.8125 | 0.8135 | 0.8146 | 0.8157 | 0.8183
308.15 K | 0.7261 | 0.727 | 0.7277 | 0.7286 | 0.7292 | 0.7302 | 0.7313 | 0.7321 | 0.7333 | 0.7353
313.15 K | 0.657 | 0.6576 | 0.6581 | 0.6587 | 0.6595 | 0.6601 | 0.6607 | 0.6616 | 0.6626 | 0.6642

CC(C)C[C@H](N)C(=O)O [L-leucine] + O
viscosity [mPa·s]
Conditions | 293.15 K | 298.15 K | 303.15 K | 308.15 K | 313.15 K
m1 = 0.025 | 1.02 | 0.8932 | 0.7948 | 0.7187 | 0.6481
m1 = 0.05 | 1.022 | 0.8936 | 0.8021 | 0.7237 | 0.6571
m1 = 0.1 | 1.026 | 0.8992 | 0.8011 | 0.7223 | 0.6533

— the NIST ThermoML archive (doi:10.1021/je500647a)
